The target of this experiment is T1, hα4 and β1 integrins (VLA-4) (Homo sapiens, UniProt P05556+P13612).
T1 construct: expressed in transfected cells; host or cells: CHO cells
T1 sequence (P13612 34-1032): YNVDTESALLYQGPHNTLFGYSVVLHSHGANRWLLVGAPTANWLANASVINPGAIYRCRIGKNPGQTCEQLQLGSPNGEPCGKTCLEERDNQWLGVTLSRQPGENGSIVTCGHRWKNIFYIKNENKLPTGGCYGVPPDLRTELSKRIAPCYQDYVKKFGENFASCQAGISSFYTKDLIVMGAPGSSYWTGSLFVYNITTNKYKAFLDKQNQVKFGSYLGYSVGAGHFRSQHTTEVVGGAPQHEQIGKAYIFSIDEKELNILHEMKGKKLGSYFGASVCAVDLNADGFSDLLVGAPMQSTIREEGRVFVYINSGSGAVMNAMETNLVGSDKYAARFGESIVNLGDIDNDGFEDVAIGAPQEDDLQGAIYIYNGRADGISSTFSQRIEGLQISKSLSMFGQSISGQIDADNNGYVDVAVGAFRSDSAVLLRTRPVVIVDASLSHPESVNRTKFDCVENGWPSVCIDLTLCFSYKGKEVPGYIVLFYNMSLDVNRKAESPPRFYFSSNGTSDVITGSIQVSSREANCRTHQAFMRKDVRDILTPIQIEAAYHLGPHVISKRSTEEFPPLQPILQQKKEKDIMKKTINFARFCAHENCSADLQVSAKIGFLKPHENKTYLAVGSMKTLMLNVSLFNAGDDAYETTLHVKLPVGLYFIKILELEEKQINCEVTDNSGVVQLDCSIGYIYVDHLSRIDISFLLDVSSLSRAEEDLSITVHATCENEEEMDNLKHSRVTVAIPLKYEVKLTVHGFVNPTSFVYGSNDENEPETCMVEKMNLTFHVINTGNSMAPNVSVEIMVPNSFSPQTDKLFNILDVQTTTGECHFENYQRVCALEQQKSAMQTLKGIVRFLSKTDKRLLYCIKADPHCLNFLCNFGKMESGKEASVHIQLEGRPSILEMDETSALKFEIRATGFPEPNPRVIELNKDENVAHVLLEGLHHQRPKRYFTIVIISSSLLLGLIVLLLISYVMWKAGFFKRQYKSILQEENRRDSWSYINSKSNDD
T1 sequence (P05556 21-798): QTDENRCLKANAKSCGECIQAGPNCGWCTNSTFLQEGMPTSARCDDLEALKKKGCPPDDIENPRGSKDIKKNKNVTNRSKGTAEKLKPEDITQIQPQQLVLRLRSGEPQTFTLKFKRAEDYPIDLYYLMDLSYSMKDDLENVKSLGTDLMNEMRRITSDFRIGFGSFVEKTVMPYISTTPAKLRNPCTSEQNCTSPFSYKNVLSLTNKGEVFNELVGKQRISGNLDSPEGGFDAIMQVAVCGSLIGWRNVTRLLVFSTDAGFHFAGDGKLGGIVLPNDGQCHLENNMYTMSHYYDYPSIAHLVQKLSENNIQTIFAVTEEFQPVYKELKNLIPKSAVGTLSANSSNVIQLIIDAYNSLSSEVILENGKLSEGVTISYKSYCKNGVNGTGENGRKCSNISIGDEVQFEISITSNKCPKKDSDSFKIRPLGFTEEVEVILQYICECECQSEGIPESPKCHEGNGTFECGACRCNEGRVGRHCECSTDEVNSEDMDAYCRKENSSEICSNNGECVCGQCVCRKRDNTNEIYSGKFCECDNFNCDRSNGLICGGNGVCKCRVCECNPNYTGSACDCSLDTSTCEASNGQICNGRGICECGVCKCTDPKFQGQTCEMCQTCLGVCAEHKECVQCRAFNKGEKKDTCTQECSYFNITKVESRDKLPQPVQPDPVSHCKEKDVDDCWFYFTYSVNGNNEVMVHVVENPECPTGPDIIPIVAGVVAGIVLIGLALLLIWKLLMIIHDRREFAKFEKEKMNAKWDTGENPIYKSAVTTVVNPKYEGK
The experiment in a line: In vitro evaluation: inhibition of binding of CHO cells expressing hα4 and β1 integrins to Eu3+-hVCAM-1 D1D7-IgG. The conditions noted are these: ligand Eu3+-hVCAM-1 D1D7-IgG 2 nM, Ki calculated from IC50. As to the method:
CHO cells which were forced to be expressed by transduction of hα4 and β1 integrins are seeded (3×10^4 cells/100 μl/well) on a Costar 3599 plate, and cultured for 2 days. A medium is washed with a buffer A* two times, and Eu^3+-hVCAM-1 D1D7-IgG which was diluted with an assay buffer A** to 2 nM is added at 50 μl/well. A test substance which was diluted with 2% DMSO-assay buffer (in the presence or the absence of 6% human serum albumin) is added at 50 μl/well (A solution which was separately diluted is added to a well in which Scatchard analysis is performed), this is stirred with a plate mixer for 5 minutes, and allowed to stand at room temperature for 1 hour. Thereafter, this is washed with a buffer A four times, a potentiating reagent (manufactured by DELFIA) is added at 100 μl/well, this is shaken for 5 minutes using a plate mixer, and a fluorescence intensity is measured with a time-resolved fluorometer (DELFIA Wallac). IC50 (concentration at which binding of CHO cell and Eu^3+-hVCAM-1 D1D7-IgG is inhibited by 50%) of a test substance is obtained from an integration rate obtained from a calculation equation: [(FT−FNS)−(FI−FNS)]/[(FT−FNS)]×100, wherein FT indicates a fluorescence intensity of a well not containing a test substance, FNS indicates a fluorescence intensity of a well not containing a test substance and hVCAM-1 D1D7-IgG, and FI indicates a fluorescence intensity containing a test substance. A Kd value showing strength of binding and Bmax (maximum binding amount) were presumed in a range of 0.06 to 20 nM according to the Scachard analysis method. [formula]
A Ki value was calculated according to the above equation ([L] is ligand concentration)
[* buffer A: 25 mM HEPES (pH 7.5), 150 mM NaCl, 1 mM Ca^2+, 1 mM Mg^2+, 4 mM Mn^2+; ** assay buffer: 25 mM HEPES (pH 7.5), 150 mM NaCl, 1 mM Ca^2+, 1 mM Mg^2+, 4 mM Mn^2+, 0.1% BSA, 20 μM DTPA, with/without 6% ALBUMIN, HUMAN SERUM (C/NA-1653, SIGMA)]
Take “3-[2-[1-[4-(3-Benzo[b]thiophenylcarbonyl)amino-5-chloro-2-fluorophenyl]acetyl]-(3S)-ethoxy-(2S)-pyrrolidinyl]-5-oxazolyl]propionic acid methyl ester [Example 99]”: the Ki (commonly the equilibrium dissociation constant of an inhibitor or competing ligand from its target) was 5.3 nM.

Consider `COc1cc(CC(=O)N[C@@H](CC(C)C)c2cc(CCC(=O)O)on2)ccc1NC(=O)Nc1ccccc1C` [CP664511], for which the Ki is 1.5 nM.

Turning to `CO[C@H]1C[C@@H](c2ncc(CCC(=O)O)s2)N(C(=O)Cc2cc(Cl)c(NC(=O)c3csc4ccccc34)cc2Cl)C1` [Example 3, 3-[2-[1-[[4-[(3-Benzo[b]thienylcarbonyl)amino]-2,5-dichlorophenyl]acetyl]-(4S)-methoxy-(2S)-pyrrolidinyl]-5-thiazolyl]propionic acid], the Ki is 0.58 nM.

For the compound `CO[C@H]1C[C@@H](c2ncc(CCC(=O)O)s2)N(C(=O)Cc2cc(Cl)c(NC(=O)c3coc4ccccc34)cc2Cl)C1` [Example 5, 3-[2-[1-[4-[(1-Benzofuran-3-ylcarbonyl)amino]-2,5-dichlorophenylacetyl]-(4S)-methoxy-(2S)-pyrrolidinyl]-5-thiazolyl]propionic acid], the Ki is 0.6 nM.

As for `CO[C@H]1C[C@@H](c2ncc(CCC(=O)O)s2)N(C(=O)Cc2cc(Cl)c(NC(=O)c3coc4ccccc34)cc2F)C1` [Example 6, 3-[2-[1-[4-[(1-Benzofuran-3-ylcarbonyl)amino]-5-chloro-2-fluorophenylacetyl]-(4S)-methoxy-(2S)-pyrrolidinyl]-5-thiazolyl]propionic acid], the Ki was 0.4 nM.

Consider `CO[C@H]1C[C@@H](c2ncc(CCC(=O)O)s2)N(C(=O)Cc2cc(Cl)c(NC(=O)c3nn(C)c4ccccc34)cc2F)C1` [Example 7, 3-[2-[1-[5-Chloro-2-fluoro-4-(1-methyl-3-indazolylcarbonyl)aminophenylacetyl]-(4S)-methoxy-(2S)-pyrrolidinyl]-5-thiazolyl]propionic acid], for which the Ki is 0.97 nM.

As to `CO[C@H]1C[C@@H](c2ncc(CCC(=O)O)s2)N(C(=O)Cc2ccc3nc(Nc4cc(F)ccc4C)oc3c2F)C1` [Example 8], the inhibitory constant (Ki) was 0.34 nM.

For `COc1ccc(F)cc1Nc1nc2ccc(CC(=O)N3C[C@@H](OC)C[C@H]3c3ncc(CCC(=O)O)s3)c(F)c2o1` [Example 9, 3-[2-[1-[[7-Fluoro-2-(5-fluoro-2-methoxyphenylamino)-1,3-benzoxazol-6-yl]acetyl]-(4S)-methoxy-(2S)-pyrrolidinyl]-5-thiazolyl]propionic acid], the Ki is 0.96 nM.

Turning to `CO[C@H]1C[C@@H](c2ncc(CCC(=O)O)s2)N(C(=O)Cc2ccc3nc(-c4cn(C)c5ccccc45)oc3c2F)C1` [Example 11, 3-[2-[1-[7-Fluoro-2-(1-methylindol-3-yl)-1,3-benzoxazol-6-ylacetyl]-(4S)-methoxy-(2S)-pyrrolidinyl]-5-thiazolyl]propionic acid], the inhibitory constant (Ki) is 0.5 nM.

Regarding `CO[C@H]1C[C@@H](c2ncc(CCC(=O)O)o2)N(C(=O)Cc2cc(Cl)c(NC(=O)c3cn(C)c4ccccc34)cc2Cl)C1` [Example 12, 3-[2-[1-[2,5-Dichloro-4-(1-methyl-3-indolylcarbonylamino)phenylacetyl]-(4S)-methoxy-(2S)-pyrrolidinyl]-5-oxazolyl]propionic acid], the Ki is 18 nM.

Turning to `CO[C@H]1C[C@@H](c2ncc(CCC(=O)O)o2)N(C(=O)Cc2cc(Cl)c(NC(=O)c3cn(C)c4ccccc34)cc2F)C1` [Example 13, 3-[2-[1-[5-Chloro-2-fluoro-4-(1-methyl-3-indolylcarbonyl)aminophenylacetyl]-(4S)-methoxy-(2S)-pyrrolidinyl]-5-oxazolyl]propionic acid], the Ki is 17 nM.

As for `CO[C@H]1C[C@@H](c2ncc(CCC(=O)O)o2)N(C(=O)Cc2cc(Cl)c(NC(=O)c3csc4ccccc34)cc2Cl)C1` [Example 14, 3-[2-[1-[[4-[(3-Benzo[b]thienylcarbonyl)amino]-2,5-dichlorophenyl]acetyl]-(4S)-methoxy-(2S)-pyrrolidinyl]-5-oxazolyl]propionic acid], the Ki is 4 nM.

As to `CO[C@H]1C[C@@H](c2ncc(CCC(=O)O)o2)N(C(=O)Cc2cc(Cl)c(NC(=O)c3csc4ccccc34)cc2F)C1` [Example 15, 3-[2-[1-[[4-[(3-Benzo[b]thienylcarbonyl)amino]-5-chloro-2-fluorophenyl]acetyl]-(4S)-methoxy-(2S)-pyrrolidinyl]-5-oxazolyl]propionic acid], the Ki was 4.5 nM.

As for `COc1ccc(F)cc1Nc1nc2ccc(CC(=O)N3C[C@@H](OC)C[C@H]3c3ncc(CCC(=O)O)o3)c(F)c2o1` [Example 16, 3-[2-[1-[[7-Fluoro-2-(5-fluoro-2-methoxyphenylamino)-1,3-benzoxazol-6-yl]acetyl]-(4S)-methoxy-(2S)-pyrrolidinyl]-5-oxazolyl]propionic acid], the Ki is 22 nM.

In the case of `COc1ccccc1Nc1nc2ccc(CC(=O)N3C[C@@H](OC)C[C@H]3c3ncc(CCC(=O)O)o3)c(F)c2o1` [Example 17, 3-[2-[1-[[7-Fluoro-2-(2-methoxyphenylamino)-1,3-benzoxazol-6-yl]acetyl]-(4S)-methoxy-(2S)-pyrrolidinyl]-5-oxazolyl]propionic acid], the Ki is 15 nM.

Turning to `Cn1cc(C(=O)Nc2cc(Cl)c(CC(=O)N3C[C@@H](F)C[C@H]3c3ncc(CCC(=O)O)s3)cc2Cl)c2ccccc21` [Example 18, 3-[2-[1-[2,5-Dichloro-4-(1-methyl-3-indolylcarbonylamino)phenylacetyl]-(4S)-fluoro-(2S)-pyrrolidinyl]-5-thiazolyl]propionic acid], the Ki is 1.1 nM.

Take `Cn1cc(C(=O)Nc2cc(F)c(CC(=O)N3C[C@@H](F)C[C@H]3c3ncc(CCC(=O)O)s3)cc2Cl)c2ccccc21` [Example 19, 3-[2-[1-[5-Chloro-2-fluoro-4-(1-methyl-3-indolylcarbonyl)aminophenylacetyl]-(4S)-fluoro-(2S)-pyrrolidinyl]-5-thiazolyl]propionic acid]: the Ki was 0.94 nM.

In the case of `O=C(O)CCc1cnc([C@@H]2C[C@H](F)CN2C(=O)Cc2cc(Cl)c(NC(=O)c3csc4ccccc34)cc2Cl)s1` [Example 20, 3-[2-[1-[[4-[(3-Benzo[b]thienylcarbonyl)amino]-2,5-dichlorophenyl]acetyl]-(4S)-fluoro-(2S)-pyrrolidinyl]-5-thiazolyl]propionic acid], the Ki is 0.69 nM.

As to `O=C(O)CCc1cnc([C@@H]2C[C@H](F)CN2C(=O)Cc2cc(Cl)c(NC(=O)c3csc4ccccc34)cc2F)s1` [Example 21, 3-[2-[1-[[4-[(3-Benzo[b]thienylcarbonyl)amino]-5-chloro-2-fluorophenyl]acetyl]-(4S)-fluoro-(2S)-pyrrolidinyl]-5-thiazolyl]propionic acid], the Ki is 0.61 nM.

Consider `O=C(O)CCc1cnc([C@@H]2C[C@H](F)CN2C(=O)Cc2cc(Cl)c(NC(=O)c3coc4ccccc34)cc2F)s1` [Example 22, 3-[2-[1-[[4-[(1-Benzofuran-3-ylcarbonyl)amino]-5-chloro-2-fluorophenyl]acetyl]-(4S)-fluoro-(2S)-pyrrolidinyl]-5-thiazolyl]propionic acid], for which the Ki was 0.23 nM.

On to `COc1ccccc1Nc1nc2ccc(CC(=O)N3C[C@@H](F)C[C@H]3c3ncc(CCC(=O)O)s3)c(F)c2o1` [Example 23, 3-[2-[1-[[7-Fluoro-2-(2-methoxyphenylamino)-1,3-benzoxazol-6-yl]acetyl]-(4S)-fluoro-(2S)-pyrrolidinyl]-5-thiazolyl]propionic acid], for which the Ki was 0.35 nM.

Turning to `CO[C@@H]1C[C@@H](c2ncc(CCC(=O)O)s2)N(C(=O)Cc2cc(Cl)c(NC(=O)c3cn(C)c4ccccc34)cc2Cl)C1` [Example 24, 3-[2-[1-[2,5-Dichloro-4-(1-methyl-3-indolylcarbonylamino)phenylacetyl]-(4R)-methoxy-(2S)-pyrrolidinyl]-5-thiazolyl]propionic acid], the Ki was 6.5 nM.

With `Cn1cc(C(=O)Nc2cc(F)c(CC(=O)N3CCC[C@H]3c3ncc(CCC(=O)O)s3)cc2Cl)c2ccccc21` [Example 27, 3-[2-[1-[5-Chloro-2-fluoro-4-(1-methyl-3-indolylcarbonyl)aminophenylacetyl]-(2S)-pyrrolidinyl]-5-thiazolyl]propionic acid], the Ki was 1.2 nM.

`O=C(O)CCc1cnc([C@@H]2CCCN2C(=O)Cc2cc(Cl)c(NC(=O)c3csc4ccccc34)cc2Cl)s1` [Example 28, 3-[2-[1-[[4-[(3-Benzo[b]thienylcarbonyl)amino]-2,5-dichlorophenyl]acetyl]-(2S)-pyrrolidinyl]-5-thiazolyl]propionic acid]: the inhibitory constant (Ki) was 0.86 nM.

The values above are taken from patent publication US20070232601A1, “Vla-4 Inhibitor” (priority 2004, published 2007).
